Nine molecules from patent publication US7973162B2, “Modulators of muscarinic receptors” (Vertex Pharmaceuticals Incorporated, priority 2007, dated 2011) can be followed below.

Assay type in all cases: cell-based
The target of assay [1] is T1, M4 muscarinic receptor (Homo sapiens, UniProt P08173).
T1 construct: expressed in transfected cells; host or cells: CHO (M4-CHO)
T1 sequence (P08173 1-479): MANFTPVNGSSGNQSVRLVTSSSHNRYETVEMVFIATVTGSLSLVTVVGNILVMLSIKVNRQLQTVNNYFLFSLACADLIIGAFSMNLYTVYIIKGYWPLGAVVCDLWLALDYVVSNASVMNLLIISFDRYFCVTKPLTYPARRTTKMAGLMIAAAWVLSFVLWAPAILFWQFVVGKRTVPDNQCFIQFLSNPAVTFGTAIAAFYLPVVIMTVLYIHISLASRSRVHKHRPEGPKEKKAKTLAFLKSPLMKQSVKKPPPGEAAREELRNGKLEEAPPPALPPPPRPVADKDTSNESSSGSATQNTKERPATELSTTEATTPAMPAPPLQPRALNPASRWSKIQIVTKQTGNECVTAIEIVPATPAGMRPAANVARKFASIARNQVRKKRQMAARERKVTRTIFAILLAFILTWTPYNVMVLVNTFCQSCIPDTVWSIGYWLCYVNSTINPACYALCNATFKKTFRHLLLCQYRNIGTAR
Nature of the assay: Functional mobilization of intracellular calcium (FLIPR), M4-CHO cells. Conditions: for M4 Efficacy / Emax: 100% efficacy = maximum response obtained with the Carbachol control; for EC50: CHO cells expressing M4, calcium mobilization. On the procedure:
(§1) Functional Mobilization of Intracellular Calcium to Determine Muscarinic Receptor Activity:
(§2) CHO cells expressing muscarinic receptors (M1 to M5) are grown as monolayers in tissue culture flasks at 37° C. in a humidified atmosphere containing 5% CO2 and passaged every 3-5 days. The growth media is Dulbecco's modified eagles medium (DMEM, Gibco Cat# 12430-054), containing 25 mM Hepes and supplemented with Fetal Bovine Serum (Hyclone, cat #SH30071.03), 0.1 mM of MEM non-essential amino acids (GIBCO, Cat #11140-050), 1 mM MEM Sodium Pyruvate (GIBCO Cat #11360-070) and 100 units/ml of Penicillin G and 100 μg/ml of Streptomycin (GIBCO Cat #15140-122). The recombinant muscarinic receptor cell lines are grown under antibiotic pressure with media containing 25 μg/ml zeocin and 500 μg/ml G418 (M1-CHO), 4 μg/ml puromycin, 50 μg/ml zeocin and 2.5 μg/ml blasticidin (M2 and M4-CHO) or 50 μg/ml zeocin and 4 μg/ml puromycin (M3 and M5-CHO).
(§3) Cells are harvested at 80-90% confluence using Versene (GIBCO Cat #15040-066), collected by centrifugation and seeded 18-24 hrs prior to running the calcium assay at a density of 5,000-10,000 cells/well in […], clear-bottomed 384-well plates (BD Biocoat, poly-D-lysine, Cat#356663). The day of the experiment, the cells are washed with a plate washer (Bioteck Instruments, ELX 405) using bath1 buffer (140-mM NaCl, 4.5-mM KCl, 2-mM CaCl2, 1-mM MgCl2, 10-mM Hepes-Na, 10-mM Glucose, pH 7.4, with NaOH) containing 1 mM Probenecid. Next, the calcium dye Fluo-3 (25 μl/well of Fluo-3 AM at 4 μM, Molecular Probes F-1241, in Bath 1 buffer containing 1 mM Probenecid) is added to the 25 μl of Bath 1 remaining in each well after the plate wash and the dye is loaded at 37° C. in the tissue culture incubator for 60-90 min. The fluorescent dye is removed using the plate washer with Bath 1 containing 1 mM Probenecid, leaving 25 μl/well of this solution after the wash. Alternatively, cells can be loaded with the calcium indicator from Molecular Devices (Calcium 3 Assay Reagents, Cat #R7181) adding 5 μl of a 5× solution dye in Bath 1 containing 1 mM Probenecid (10 ml per dye flask cat #R7182 to generate a solution 20×) to 20 μl of the same buffer. After loading for 60 min, the experiment can be run without having to remove the dye.
(§4) Compounds are prepared at a 2× fold concentration in a 96-well plate (round bottom, Costar Corning cat #3656), by reconstituting the pre-spotted compounds in bath 1 containing 1 mM probenecid. The final concentration DMSO is 0.5%, and the amount of DMSO is normalized across the assay plate. To determine an agonist action of the compounds on muscarinic receptors, the reconstituted compounds are added (25 μl compound/well) to the cell assay plate (containing 25 μl/well) using the multi-channel robotic system of the FLIPR 3 Instrument (Molecular Devices, Sunnyvale, Calif.). To determine a functional inhibitory action of the compounds on muscarinic receptors, the reconstituted compounds are added (25 μl compound/well) to the assay plate and pre-incubated for 15 min prior to adding 25 μl of Carbachol at 3× the EC80 for each muscarinic subtype. Alternatively, the compounds can be co-applied simultaneously with the agonist. In both assay modes, the fluorescence is recorded for 60 sec (excitation wavelength is […] and emission wavelength 540 nm) using the FLIPR 3 instrument.
(§5) The potency, efficacy and selectivity of the muscarinic compounds were evaluated by screening the compound activity across the whole family (M1 to M5 cells). Compounds were also screened for activity on other proteins such as other GPCRs and ion channels to determine selectivity on M4 receptors.
(§6) Examples of activities and efficacies of the muscarinic compounds of formulae (I, Ia, and Ib) on modulating M1 and M4 receptors are shown below in Table 3. […]

Assay [2] deals with T2, M2 muscarinic receptor (Homo sapiens, UniProt P08172).
T2 construct: expressed in transfected cells; host or cells: CHO (M2-CHO)
T2 sequence (P08172 1-466): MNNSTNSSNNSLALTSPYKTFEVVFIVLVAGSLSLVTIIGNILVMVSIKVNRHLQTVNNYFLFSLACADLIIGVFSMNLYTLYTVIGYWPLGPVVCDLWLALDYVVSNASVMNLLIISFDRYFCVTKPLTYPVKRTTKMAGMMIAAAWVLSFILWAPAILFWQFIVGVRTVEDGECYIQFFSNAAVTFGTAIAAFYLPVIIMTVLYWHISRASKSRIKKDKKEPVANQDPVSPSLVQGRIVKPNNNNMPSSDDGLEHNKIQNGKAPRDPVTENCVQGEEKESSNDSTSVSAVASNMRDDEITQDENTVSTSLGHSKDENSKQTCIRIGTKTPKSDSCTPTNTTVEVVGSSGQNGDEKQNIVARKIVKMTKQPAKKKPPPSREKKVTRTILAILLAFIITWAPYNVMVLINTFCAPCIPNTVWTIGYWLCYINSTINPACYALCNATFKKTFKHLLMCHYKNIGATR
Nature of the assay: Functional mobilization of intracellular calcium (FLIPR), M2-CHO cells. The following applies: for M2 Efficacy / Emax: 100% efficacy = maximum response obtained with the Carbachol control; for EC50: CHO cells expressing M2, calcium mobilization. On the procedure: as §1, §2, §3, §4, §5, §6
(Calcium flux is commonly read through the fluorescence of an indicator in the cells.)

For assay [3], the target named is T3, M3 muscarinic receptor (Homo sapiens, UniProt P20309).
T3 construct: expressed in transfected cells; host or cells: CHO (M3-CHO)
T3 sequence (P20309 whole entry): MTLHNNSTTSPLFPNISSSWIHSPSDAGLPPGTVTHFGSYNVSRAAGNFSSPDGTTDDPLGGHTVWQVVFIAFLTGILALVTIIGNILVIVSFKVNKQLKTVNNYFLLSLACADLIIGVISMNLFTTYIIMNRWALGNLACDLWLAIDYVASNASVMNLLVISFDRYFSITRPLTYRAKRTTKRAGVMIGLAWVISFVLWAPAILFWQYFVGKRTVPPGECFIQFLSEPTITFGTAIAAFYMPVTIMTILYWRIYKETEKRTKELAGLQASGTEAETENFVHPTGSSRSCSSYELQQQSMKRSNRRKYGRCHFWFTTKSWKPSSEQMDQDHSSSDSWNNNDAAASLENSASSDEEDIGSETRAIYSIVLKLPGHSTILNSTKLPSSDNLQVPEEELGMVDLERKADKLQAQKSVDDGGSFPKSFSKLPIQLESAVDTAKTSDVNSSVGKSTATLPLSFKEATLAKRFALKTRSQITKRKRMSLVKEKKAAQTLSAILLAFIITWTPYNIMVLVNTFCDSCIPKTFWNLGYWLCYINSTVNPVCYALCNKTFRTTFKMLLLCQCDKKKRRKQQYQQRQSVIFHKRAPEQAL
Nature of the assay: Functional mobilization of intracellular calcium (FLIPR), M3-CHO cells. The following applies: for M3 Efficacy / Emax: 100% efficacy = maximum response obtained with the Carbachol control; for EC50: CHO cells expressing M3, calcium mobilization. On the procedure:
as §1, §2, §3, §4, §5, §6

The target in assay [4] is T4, M1 muscarinic receptor (Homo sapiens, UniProt P11229).
T4 construct: expressed in transfected cells; host or cells: CHO (M1-CHO)
T4 sequence (P11229 1-460): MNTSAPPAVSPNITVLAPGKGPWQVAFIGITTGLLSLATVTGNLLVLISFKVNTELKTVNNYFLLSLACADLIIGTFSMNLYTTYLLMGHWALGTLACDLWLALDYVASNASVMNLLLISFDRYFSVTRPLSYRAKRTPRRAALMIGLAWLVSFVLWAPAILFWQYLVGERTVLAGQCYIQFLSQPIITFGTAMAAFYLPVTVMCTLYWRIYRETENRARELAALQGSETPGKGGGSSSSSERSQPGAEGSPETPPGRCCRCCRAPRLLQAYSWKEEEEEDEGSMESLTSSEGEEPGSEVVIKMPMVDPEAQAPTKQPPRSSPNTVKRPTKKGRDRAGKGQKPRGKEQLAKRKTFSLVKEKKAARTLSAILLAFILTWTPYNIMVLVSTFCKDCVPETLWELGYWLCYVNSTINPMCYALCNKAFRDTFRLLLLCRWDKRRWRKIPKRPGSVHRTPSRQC
The assay can be described thus: Functional mobilization of intracellular calcium (FLIPR), M1-CHO cells. The following applies: for M1 Efficacy / Emax: 100% efficacy = maximum response obtained with the Carbachol control; for EC50: CHO cells expressing M1, calcium mobilization. The protocol: as §1, §2, §3, §4, §5, §6

As usually defined, the EC50 is the concentration that produces a half-maximal response. What is called Emax is the maximal effect, on the per cent scale that the assay sets.

Where only a bound is given, the exact number is not on record here.

As to `CN1C(=O)C[C@@H]2CC3(CCN(C4CCCCC4)CC3)c3ccccc3[C@@H]21` [Compound 24], in assay [1], the “M4 Efficacy” value is “++ (efficacy was calculated to be from 100% to 25%)” and the EC50 was less than 2 µM. In addition, in assay [2], the “M2 Efficacy” value is reported as “+ (efficacy was calculated to be less than 25%)” and the EC50 was more than 5 µM. In assay [3], the “M3 Efficacy” value is reported as “+ (efficacy was calculated to be less than 25%)” and the 50% effective concentration (EC50) was more than 5 µM. In addition, in assay [4], the “M1 Efficacy” value is given as “++ (efficacy was calculated to be from 100% to 25%)” and the EC50 was more than 5 µM.

`O=C1C[C@@H]2CC3(CCN(C[C@@H]4C[C@H]5C=C[C@H]4C5)CC3)c3ccccc3[C@@H]2N1` [Compound 25]: the Emax in assay [1], in assay [2], in assay [3] and in assay [4] was 25 to 100% each time. For the same molecule, the 50% effective concentration (EC50) in assay [1] was less than 2 µM; in assay [2], less than 2 µM; in assay [3], more than 5 µM; in assay [4] it was less than 2 µM.

Take `c1ccc2c(c1)C1OCCC1CC21CCN(C2CCCCC2)CC1` (stereo not drawn) [Compound 26]: the Emax in assay [1] is less than 25%; in assay [2], less than 25%; in assay [3], less than 25%; in assay [4], 25 to 100%. The EC50 in assay [1] is less than 2 µM; in assay [2], more than 5 µM; in assay [3] it was more than 5 µM; in assay [4] it was more than 5 µM.

As for `CC(=O)N1CC[C@@H]2CC3(CCN(C4CCCCC4)CC3)c3ccccc3[C@@H]21` [Compound 27], the maximal effect (Emax) in assay [1], in assay [2], in assay [3] and in assay [4] was less than 25% in each case. Further, the concentration giving a half-maximal response (EC50) in assay [1], in assay [2], in assay [3] and in assay [4] was more than 5 µM throughout.

As for `O=C1CC2CC3(CCN(C4CC5CCC(C5)C4)CC3)c3ccccc3C2O1` (stereo not drawn) [Compound 28], the Emax in assay [1] was 25 to 100%; in assay [2], less than 25%; in assay [3] it was less than 25%; in assay [4] it was 25 to 100%. The EC50 was less than 2 µM in assay [1], more than 5 µM in assay [2], more than 5 µM in assay [3] and less than 2 µM in assay [4].

Regarding `CN1C(=O)C[C@@H]2CC3(CCN(C4CCCCCC4)CC3)c3ccccc3[C@@H]21` [Compound 29], in assay [1], the “M4 Efficacy” value is given as “++ (efficacy was calculated to be from 100% to 25%)” and the EC50 was less than 2 µM. Further, in assay [2], the “M2 Efficacy” value is “++ (efficacy was calculated to be from 100% to 25%)” and the EC50 is less than 2 µM. Besides, in assay [3], the “M3 Efficacy” value is listed as “+ (efficacy was calculated to be less than 25%)” and the EC50 was more than 5 µM. Further, in assay [4], the “M1 Efficacy” value is reported as “++ (efficacy was calculated to be from 100% to 25%)” and the EC50 was less than 2 µM.

Consider `O=C1C[C@@H]2[C@H](N1)c1ccccc1C21CCN(C[C@H]2C[C@@H]3CC[C@@H]2C3)CC1` [Compound 30], for which the Emax in assay [1] was 25 to 100%; in assay [2] it was 25 to 100%; in assay [3], less than 25%; in assay [4], 25 to 100%. In addition, the EC50 was less than 2 µM in assay [1], 2 to 5 µM in assay [2], more than 5 µM in assay [3] and less than 2 µM in assay [4].

`O=C1C[C@@H]2[C@H](N1)c1ccccc1C21CCN(C2CCCCC2)CC1` [Compound 31]: the Emax is 25 to 100% in assay [1], less than 25% in assay [2], less than 25% in assay [3] and 25 to 100% in assay [4]. Further, the EC50 in assay [1] is less than 2 µM; in assay [2] it was 2 to 5 µM; in assay [3] it was more than 5 µM; in assay [4] it was less than 2 µM.

As for `O=C1C[C@@H]2[C@H](N1)c1ccccc1C21CCN(C2C[C@H]3CC[C@@H]2C3)CC1` (stereo partly drawn) [Compound 32], the Emax was 25 to 100% in assay [1], 25 to 100% in assay [2], less than 25% in assay [3] and 25 to 100% in assay [4]. The EC50 in assay [1] is less than 2 µM; in assay [2], 2 to 5 µM; in assay [3] it was more than 5 µM; in assay [4], 2 to 5 µM.
